The values that follow are results of earlier work, collected in patent publication US20110071071A1, “PSMB10: A DIAGNOSIS MARKER AND THERAPEUTIC TARGET OF CHRONIC REJECTION” (priority 2008, published 2011).

For one series, the target named is 20S proteasome (Homo sapiens, UniProt P28072+P28074+Q99436). The settings on record: all three catalytic sites.
The target in series [1] is T1, chymotrypsin-like activity of the purified 20S proteasome (Homo sapiens, UniProt P28074).
T1 sequence (P28074 60-263): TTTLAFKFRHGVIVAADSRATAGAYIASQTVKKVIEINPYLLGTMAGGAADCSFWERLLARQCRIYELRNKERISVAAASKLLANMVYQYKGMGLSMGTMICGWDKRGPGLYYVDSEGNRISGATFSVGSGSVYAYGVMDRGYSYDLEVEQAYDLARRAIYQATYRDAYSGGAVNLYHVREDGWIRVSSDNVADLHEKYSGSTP
The settings on record: in vitro.

Series [2] relates to murine neuroblastoma cell line Neuro-2a. The settings on record: Neuro-2a cells.

For `C[C@@]12OC(=O)[C@]1([C@@H](O)[C@@H]1C=CCCC1)NC(=O)[C@@H]2CCCl` [NPI-0052, salinosporamide A], the 20S proteasome inhibition result on 20S proteasome was “highly potent and selective 20S proteasome inhibitor with irreversible activity against all three catalytic sites”.

As for `O=C(OC1Cc2c(O)cc(O)cc2OC1c1cc(O)c(O)c(O)c1)c1cc(O)c(O)c(O)c1` (single isomer, unassigned; (-)) [(−)-EGCG, (−)-epigallocatechin 3-gallate], the “inhibition of chymotrypsin-like (CT-L) activity of the 20S proteasome” value in series [1] is “inhibiting the chymotrypsin-like activity”.

`CC(=O)N[C@@H](CSC(=O)[C@]1([C@@H](O)C(C)C)NC(=O)[C@H](C)[C@@H]1O)C(=O)O` [lactacystin]: in series [2], the neurite outgrowth result is given as “induce neurite outgrowth”.
